Where a name gives a salt, the structure may show the parent alone. Read-outs that look alike come from different tables or passages of the source.
How the values were obtained:
BFP-aq [1] = target: T1, BFP-aq (Aequorea victoria, UniProt P07164); test: biochemical; format: biochemical; parameters: The recombinant apoaequorins encoded by piP-HE is composed of 191 amino acids, whose N-terminus starts from Ala-Asn-Ser-; made in house; host or cells: E. coli strain WA802; conditions: for Luminescence activity (%) Imax: 50 mM Tris-HCl pH 8.0, 25° C., coelenterazine 1 μg, no compound = 100%
Experimental: (§1) Solutions of 50 mM Tris-HCl (pH 8.0), each containing various commercial organic compounds shown in Table 3, were prepared and pre-warmed at 25° C. The substrate coelenterazine (1 μg) was added to the solutions (200 μl) containing each of these compounds.

[2] = cited from earlier work
[3] = target: T2, BFP-aq, luciferase with fluorescence activity derived from aequorin (recombinant apoaequorin, SEQ ID NO: 1 with N-terminal Val replaced by Ala-Asn-Ser; complex with coelenteramide and calcium ions) (Aequorea victoria, UniProt P02592); test: Enhancing effect of organic compounds on BFP-aq luminescence with coelenterazine as substrate (Table 4); format: biochemical; conditions: pH 8.0, 25° C., no addition = 100%; for activity at 30000 µM: 30 mM compound; for activity at 150000 µM: 150 mM compound; for activity at 300000 µM: 300 mM compound; for activity at 3 M: 3000 mM compound
T2 construct: The recombinant apoaequorins encoded by piP-HE is composed of 191 amino acids, whose N-terminus starts from Ala-Asn-Ser-; made in house; host or cells: E. coli strain WA802 (expression vector piP-HE)
T2 sequence (P02592 with tags, fused parts or gaps): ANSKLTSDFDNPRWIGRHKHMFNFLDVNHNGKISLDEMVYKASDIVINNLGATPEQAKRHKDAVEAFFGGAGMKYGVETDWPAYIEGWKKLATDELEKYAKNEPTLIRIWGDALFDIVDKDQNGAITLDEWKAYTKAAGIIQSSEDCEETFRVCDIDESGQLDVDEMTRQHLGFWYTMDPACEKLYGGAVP
Description: To obtain recombinant apoaequorins, the apoaequorin gene expression vector piP-HE (Japanese Laid-Open Application No. 1989-132397) constructed from pAQ440 harboring the apoaequorin gene (Japanese Laid-Open Application No. 1986-135586) was used. The recombinant apoaequorins encoded by piP-HE is composed of 191 amino acids, whose N-terminus starts from Ala-Asn-Ser-(Val of the N-terminus of SEQ ID NO: 1 in the sequence listing was replaced by Ala-Asn-Ser-).
In a VIVASPIN 2 column, the concentrated aequorin solution was overlaid with 0.9 ml of 50 mM Tris-HCl (pH 7.6) containing 5 mM calcium chloride (Wako Pure Chemicals Industries, Ltd.) and 2 mM dithiothreitol (Wako Pure Chemicals Industries, Ltd.) to trigger continuous light emission and the column was allowed to stand at […] for 24 hours or longer. […] Further, 2 ml of 50 mM Tris-HCI (pH 7.6) containing 5 mM calcium chloride (Wako Pure Chemicals Industries, Ltd.) and 2 mM dithiothreitol (Wako Pure Chemicals Industries, Ltd.) was loaded onto the VIVASPIN 2 column and the column was centrifuged under the identical conditions and then washed.
as §1

BFP-aq [4] = target: T1, BFP-aq; format: biochemical; parameters: The recombinant apoaequorins encoded by piP-HE is composed of 191 amino acids, whose N-terminus starts from Ala-Asn-Ser-; made in house; host or cells: E. coli strain WA802; conditions: for Relative luminescence activity Imax (%) / Relative luminescence activity Initial velocity (%): substrate 1 μg, BFP-aq 1.2 μg, pH 8.0, coelenterazine without imidazole = 100%
Experimental: 200 μl of this solution was placed in five vessels, to each of which 1 μg of the substrate coelenterazine (CTZ) and its four analogs: h-CTZ, cp-CTZ, hcp-CTZ, f-CTZ were added.

[5] = substrate: Oc1ccc(Cc2nc3c(Cc4ccccc4)nc(-c4ccc(O)cc4)cn3c2O)cc1; test: Light-emitting reaction rate of BFP-aq, Lineweaver-Burk plot (Table 6); format: biochemical, Aequorea victoria; conditions: other: coelenterazine, pH 8.0, 25° C.
[6] = pH 8, read-out: Luminescence activity (%) Imax
[7] = pH 8, read-out: Luminescence activity (%) Initial velocity
[8] = read-out: Luminescence activity, Imax
[9] = read-out: Luminescence activity, initial velocity

## Cc1ncc[nH]1 [2-Methylimidazole]
BFP-aq [1]; [6]
  activity at 30000 µM: 63%
  activity at 150000 µM: 16%
BFP-aq [1]; [7]
  activity at 30000 µM: 83%
  activity at 150000 µM: 21%

## Cc1c[nH]cn1 [4-Methylimidazole]
BFP-aq [1]; [6]
  activity at 30000 µM: 88%
  activity at 150000 µM: 78%
BFP-aq [1]; [7]
  activity at 30000 µM: 92%
  activity at 150000 µM: 95%
[2]
  pKa: 7.5

## NC(=O)c1nc[nH]c1N [5-Amino-imidazole-4-carboxamide/hydrochloride]
BFP-aq [1]; compound 30 mM
  Luminescence activity (%) Imax: 64%
BFP-aq [1]; compound 150 mM
  Luminescence activity (%) Imax: 0%
[3]; [8]
  activity at 30000 µM: 64%
  activity at 150000 µM: 0%
[3]; [9]
  activity at 30000 µM: 48%
  activity at 150000 µM: 2%

## CC(N)=O [Acetamide/hydrochloride]
BFP-aq [1]; compound 30 mM
  Luminescence activity (%) Imax: 73%
BFP-aq [1]; compound 150 mM
  Luminescence activity (%) Imax: 31%
BFP-aq [1]; compound 300 mM
  Luminescence activity (%) Imax: 55%
[3]; [8]
  activity at 30000 µM: 73%
  activity at 150000 µM: 31%
  activity at 300000 µM: 55%
[3]; [9]
  activity at 30000 µM: 132%
  activity at 150000 µM: 44%
  activity at 300000 µM: 95%

## N=C(N)N [Guanidine/hydrochloride]
BFP-aq [1]; compound 30 mM
  Luminescence activity (%) Imax: 92%
BFP-aq [1]; compound 150 mM
  Luminescence activity (%) Imax: 109%
BFP-aq [1]; compound 300 mM
  Luminescence activity (%) Imax: 65%
[3]; [8]
  activity at 30000 µM: 92%
  activity at 150000 µM: 109%
  activity at 300000 µM: 65%
[3]; [9]
  activity at 30000 µM: 130%
  activity at 150000 µM: 226%
  activity at 300000 µM: 118%

## NCCc1c[nH]cn1 [Histamine]
BFP-aq [1]; [6]
  activity at 30000 µM: 69%
  activity at 150000 µM: 22%
BFP-aq [1]; [7]
  activity at 30000 µM: 92%
  activity at 150000 µM: 26%
[2]
  pKa: 8.0

## C[C@H](N)C(=O)O [L-Alanine]
BFP-aq [1]; [6]
  activity at 30000 µM: 88%
  activity at 150000 µM: 77%
BFP-aq [1]; [7]
  activity at 30000 µM: 82%
  activity at 150000 µM: 59%

## N=C(N)NCCC[C@H](N)C(=O)O [L-Arginine]
BFP-aq [1]; [6]
  activity at 30000 µM: 62%
  activity at 150000 µM: 1%
BFP-aq [1]; [7]
  activity at 30000 µM: 73%
  activity at 150000 µM: 4%

## NCC(=O)O [L-Glycine]
BFP-aq [1]; compound 30 mM
  Luminescence activity (%) Imax: 87%
BFP-aq [1]; compound 150 mM
  Luminescence activity (%) Imax: 83%
[3]; [8]
  activity at 30000 µM: 87%
  activity at 150000 µM: 83%
[3]; [9]
  activity at 30000 µM: 104%
  activity at 150000 µM: 78%
[2]
  pKa: 6.0

## N[C@@H](Cc1c[nH]cn1)C(=O)O [L-Histidine]
BFP-aq [1]; [6]
  activity at 30000 µM: 37%
  activity at 150000 µM: 5%
BFP-aq [1]; [7]
  activity at 30000 µM: 82%
  activity at 150000 µM: 27%

## NCCCC[C@H](N)C(=O)O [L-Lysine]
BFP-aq [1]; [6]
  activity at 30000 µM: 60%
  activity at 150000 µM: 1%
BFP-aq [1]; [7]
  activity at 30000 µM: 66%
  activity at 150000 µM: 10%

## CCN(CC)CC [Triethylamine]
BFP-aq [1]; [6]
  activity at 30000 µM: 68%
  activity at 150000 µM: 8%
BFP-aq [1]; [7]
  activity at 30000 µM: 68%
  activity at 150000 µM: 12%

## NC(N)=O [Urea]
BFP-aq [1]
  Luminescence activity (%) Imax: 29%
BFP-aq [1]; compound 30 mM
  Luminescence activity (%) Imax: 84%
BFP-aq [1]; compound 150 mM
  Luminescence activity (%) Imax: 89%
[3]; [8]
  activity at 30000 µM: 84%
  activity at 150000 µM: 89%
  activity at 3 M: 29%
[3]; [9]
  activity at 30000 µM: 113%
  activity at 150000 µM: 104%
  activity at 3 M: 57%

## O=C(O)/C=C/c1c[nH]cn1 [Urocanic acid]
BFP-aq [1]; [6]
  activity at 30000 µM: 44%
BFP-aq [1]; [7]
  activity at 30000 µM: 31%
[2]
  pKa: 5.8

## O=c1c(Cc2ccc(O)cc2)nc2c(CC3CCCC3)[nH]c(-c3ccc(O)cc3)cn1-2 [cp-Coelenterazine]
BFP-aq [4]
  Suitability as substrate in the BFP-aq light-emitting reaction system: served as effective substrates
BFP-aq [4]; with 150 mM imidazole
  Relative luminescence activity Imax (%): 138%
  Relative luminescence activity Initial velocity (%): 535%
BFP-aq [4]; without imidazole
  Relative luminescence activity Imax (%): 54%
  Relative luminescence activity Initial velocity (%): 152%

## O=c1c(Cc2ccc(F)cc2)nc2c(Cc3ccccc3)[nH]c(-c3ccc(O)cc3)cn1-2 [f-Coelenterazine]
BFP-aq [4]
  Suitability as substrate in the BFP-aq light-emitting reaction system: served as effective substrates

## O=c1c(Cc2ccccc2)nc2c(Cc3ccccc3)[nH]c(-c3ccc(O)cc3)cn1-2 [h-Coelenterazine]
BFP-aq [4]
  Suitability as substrate in the BFP-aq light-emitting reaction system: served as effective substrates

## O=c1c(Cc2ccccc2)nc2c(CC3CCCC3)[nH]c(-c3ccc(O)cc3)cn1-2 [hcp-Coelenterazine]
BFP-aq [4]
  Suitability as substrate in the BFP-aq light-emitting reaction system: served as effective substrates
BFP-aq [4]; with 150 mM imidazole
  Imax relative to coelenterazine without imidazole: 4 fold
  Velocity of light-emitting reaction relative to coelenterazine without imidazole: 25 fold

B1: BFP-aq, luciferase with fluorescence activity derived from aequorin (recombinant apoaequorin, SEQ ID NO: 1 with N-terminal Val replaced by Ala-Asn-Ser; complex … (protein)
chain: MTSKQYSVKLTSDFDNPRWIGRHKHMFNFLDVNHNGKISLDEMVYKASDIVINNLGATPEQAKRHKDAVEAFFGGAGMKYGVETDWPAYIEGWKKLATDELEKYAKNEPTLIRIWGDALFDIVDKDQNGAITLDEWKAYTKAAGIIQSSEDCEETFRVCDIDESGQLDVDEMTRQHLGFWYTMDPACEKLYGGAVP
notes: The recombinant apoaequorins encoded by piP-HE is composed of 191 amino acids, whose N-terminus starts from Ala-Asn-Ser-; made in house; host or cells: E. coli strain WA802 (expression vector piP-HE)
[5]; with 150 mM imidazole
  Km: 9.2 μM μM
[5]; without imidazole
  Km: 9.6 μM μM

Source: patent US7396655B2, “Method for enhancing activity of luciferase with fluorescence activity” (Chisso Corporation, priority 2005, dated 2008)
